Experimental data reported in patent US5753631A, “Intercellular adhesion mediators” (Cytel Corporation, priority 1995, dated 1998).
pIC50: −log10 of the molar value. Blank lines part the entries; values can stand above or below the molecule they belong to.

What was measured:
P-Selectin [1] = target: T1, P-Selectin (Homo sapiens, UniProt P16109); test: Inhibition of neutrophil adhesion to thrombin activated platelets by glycolipids in liposomes; assay type: cell-based; conditions: for pIC50: read-out: AMOUNT REQUIRED FOR 50% INHIBITION
T1 construct: endogenous in cells
T1 sequence (P16109 42-830): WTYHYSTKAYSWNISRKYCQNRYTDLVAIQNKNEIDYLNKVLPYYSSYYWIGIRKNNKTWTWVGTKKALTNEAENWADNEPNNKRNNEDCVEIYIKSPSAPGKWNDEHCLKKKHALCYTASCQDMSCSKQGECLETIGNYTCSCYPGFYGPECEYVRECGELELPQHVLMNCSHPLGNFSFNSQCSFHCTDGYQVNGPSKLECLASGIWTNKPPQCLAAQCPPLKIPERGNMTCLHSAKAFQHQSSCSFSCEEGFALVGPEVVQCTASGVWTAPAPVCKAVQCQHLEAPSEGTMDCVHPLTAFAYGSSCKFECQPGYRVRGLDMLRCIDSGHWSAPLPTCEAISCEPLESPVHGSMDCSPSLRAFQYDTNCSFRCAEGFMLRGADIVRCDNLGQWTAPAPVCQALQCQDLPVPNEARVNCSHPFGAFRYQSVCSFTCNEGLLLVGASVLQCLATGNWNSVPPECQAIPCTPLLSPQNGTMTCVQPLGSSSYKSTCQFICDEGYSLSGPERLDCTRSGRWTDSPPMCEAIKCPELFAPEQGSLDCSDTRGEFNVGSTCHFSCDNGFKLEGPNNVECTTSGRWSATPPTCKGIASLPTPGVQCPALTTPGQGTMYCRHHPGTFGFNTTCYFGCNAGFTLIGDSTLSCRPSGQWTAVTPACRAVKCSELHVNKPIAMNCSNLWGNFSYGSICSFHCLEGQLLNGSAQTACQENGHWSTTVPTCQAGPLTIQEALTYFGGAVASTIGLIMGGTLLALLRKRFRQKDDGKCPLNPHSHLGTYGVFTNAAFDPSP
Protocol: 3. For the assay, 20 μl of the platelet suspension (2×10^8 /ml) was placed in a microcentrifuge tube. […] Twenty μl of the neutrophil preparation (2×10^6 /ml) was then added and the tubes were allowed to stand for a further 20 min at room temperature.
(§1) 4. Adhesion of activated platelets to the neutrophils was assessed microscopically. One hundred neutrophils were evaluated. They were scored as positive if 2 or more platelets were attached and negative if less than 2 platelets were bound. The percent of cells with 2 or more bound platelets was calculated.
This example describes experiments testing various glycolipid structures on liposomes. In particular, SY2, a sialylated polysaccharide in which the fucose, instead of being attached to the ultimate GlcNAc as in SLe^x, is attached to the penultimate GlcNAc, was tested. Platelets and neutrophils were isolated by the methods described above. Platelets were activated with thrombin and then incubated with dilutions of various glycolipids embedded in liposomes prepared as described above. Neutrophils were added and the effect of the glycolipids on the adhesion of neutrophils to activated platelets was determined.
Structures of the various glycolipids examined are as follows: SDiY2, NeuGcα2,3Galβ1,4(Fucα1,3)GlcNacβ1,3Galβ1,4 (Fucα1,3)GlcNAcβ1,3Galβ1,4Glcβ1,1Cer; SLe^x, NeuGcα2,3Galβ1,4 (Fucα1,3)GlcNAcβ1,3Galβ1,4Glcβ1,1Cer; SY2, NeuGcα2,3Galβ1,4 GlcNAcβ1,3Galβ1,4(Fucα1,3)GlcNAcβ1,3Galβ1,4Glcβ1,1Cer; SH, NeuGcα2,3Galβ1,4GlcNAcβ1,3Galβ1,4GlcNAcβ1,3Galβ1,4Glcβ1,1Cer; SPG, NeuGcα2,3Galβ1,4GlcNAcβ1,3Galβ1,4Glcβ1,1Cer.
All materials were prepared as described above. Platelets and neutrophils were isolated by the methods described. Platelets were activated with thrombin and then incubated with dilutions of various glycolipids contained in liposomes. Neutrophils were added and the effect of the glycolipids on the adhesion of neutrophils to activated platelets was determined.
The results of an experiment in which synthetic SLe^x (NeuAc) and a preparation of SLe^x prepared by enzymatic fucosylation of sialylparagloboside purified from bovine erythrocytes, SLe^x (NeuGc), were directly compared are shown in Table 4.

P-Selectin [2] = target: T1, P-Selectin; test: Oligosaccharide/polysaccharide inhibition of neutrophil adhesion to thrombin activated platelets; assay type: cell-based; conditions: for pIC50: Table 6
Protocol: (§2) Briefly, platelets and neutrophils were isolated by the methods described above. Platelets were activated with thrombin and then incubated with dilutions of various oligosaccharides. Neutrophils were added, and the effect of the saccharides on the adhesion of neutrophils to activated platelets was determined.
1. Platelets were isolated as described above and were activated (2×10^8 /ml) by incubation for 20 min at room temperature with thrombin at a final concentration of 0.25 U/ml.
2. Neutrophils were isolated by layering heparinized blood over Mono-Poly Resolving Medium (Ficoll-Hypaque-Flow Laboratories), followed by centrifugation for 25 min at 2000 rpm and then, a further 25 min at 2500 rpm as described above.
3. For the assay, 20 μl of the platelet suspension (2×10^8 /ml) was placed in a microcentrifuge tube. An equal volume of the oligosaccharide preparations at concentrations from 200 μg/ml to 0.3 μg/ml, or of glycolipid-liposome preparations (prepared as described above), at concentrations from 2 μg/ml to 0.25 μg/ml, was added and the tubes were allowed to stand at room temperature for 20 min. Twenty μl of the neutrophil preparation (2×10^6 /ml) was then added and the tubes were allowed to stand for a further 20 min at room temperature.
as §1
as §2, with “added” for “added,”
Platelets were isolated as described above and were activated (2×10^8 /ml) by incubation for 20 min at room temperature with thrombin at a final concentration of 0.25 U/ml.
Neutrophils were isolated by layering heparinized blood over Mono-Poly Resolving Medium (Ficoll-Hypaque, Flow Laboratories), followed by centrifugation for 25 min at […] and then, a further 25 min at 2500 rpm as described above.
For the assay, 20 μl of the platelet suspension (2×10^8 /ml) was placed in an Eppendorf centrifuge tube. An equal volume of the oligosaccharide preparations at concentrations from 500 μg/ml to 2.0 μg/ml was added and the tubes were allowed to stand at room temperature for 20 min. Twenty […] of the neutrophil preparation (2×10^6 /ml) was then added and the tubes were allowed to stand for a further 20 min at room temperature.
as §1, with “Adhesion” for “4. Adhesion”

[3] = Table 3, experiment not specified

Molecule: CC(=O)N[C@H]1[C@H]([C@H](O)[C@H](O)CO)O[C@@](O[C@H]2[C@@H](O)[C@@H](CO)O[C@@H](O[C@H]3[C@H](O[C@@H]4O[C@@H](C)[C@@H](O)[C@@H](O)[C@@H]4O)[C@@H](NC(C)=O)C(O)O[C@@H]3CO)[C@@H]2O)(C(=O)O)C[C@@H]1O (some centres unmarked) [SLe^x (NeUAc)]
- pIC50 (P-Selectin [1]; Table 4): 6.17

Molecule: CC(=O)N[C@H]1[C@H]([C@H](O)[C@H](O)CO)O[C@@](O[C@H]2[C@@H](O)[C@@H](CO)O[C@@H](O[C@H]3[C@H](O[C@@H]4O[C@@H](C)[C@@H](O)[C@@H](O)[C@@H]4O)[C@@H](NC(C)=O)C(O)O[C@@H]3CO)[C@@H]2O)(C(=O)O)C[C@@H]1O (some centres unmarked) [SLe^x (tetra), NeuAcα2,3Galβ1,4 (Fucα1,3)GlcNAc]
- IC50 (P-Selectin [2]; Table 2, mean of three identical experiments, read-out: AMOUNT REQUIRED FOR 50% INHIBITION (converted)): 54000 nM
- times more required for 50% inhibition than of the SLe^x-hexasaccharide (P-Selectin [2]; tetrasaccharide versus hexasaccharide): approximately 20 times

Molecule: CC(=O)N[C@H]1[C@H](O[C@H]2[C@@H](O)[C@@H](CO)O[C@@H](O[C@H]3[C@H](O)[C@@H](O)C(OCC[Si](C)(C)C)O[C@@H]3CO)[C@@H]2O)O[C@H](CO)[C@@H](O[C@@H]2O[C@H](CO)[C@H](O)[C@H](O[C@]3(C(=O)O)C[C@H](O)[C@@H](NC(C)=O)[C@H]([C@H](O)[C@H](O)CO)O3)[C@H]2O)[C@@H]1O[C@@H]1O[C@@H](C)[C@@H](O)[C@@H](O)[C@@H]1O (some centres unmarked) [SLe^x Hexasaccharide]
- pIC50 (P-Selectin [2]; read-out: AMOUNT REQUIRED FOR 50% INHIBITION): 5.19
- pIC50 (P-Selectin [2]; read-out: amount for 50% inhibition of P-Selectin mediated binding of neutrophils to thrombin activated platelets): 5.19

Molecule: NeuGcα2,3Galβ1,4GlcNAcβ1,3Galβ1,4GlcNAcβ1,3Galβ1,4Glcβ1,1Cer [SH, reference compound]
- AMOUNT REQUIRED FOR 50% INHIBITION (P-Selectin [1]; [3]): No Inh.

Now from value to molecule:

- pIC50 (P-Selectin [1]; Table 3, Exp 1): 6.49
- pIC50 (P-Selectin [1]; Table 3, Exp 2): 6.46
- inhibition of P-Selectin mediated adhesion of neutrophils to thrombin activated platelets (P-Selectin [1]; in words, relative): equally as well as did SLe^x and SDiY2
Molecule: NeuGcα2,3Galβ1,4 GlcNAcβ1,3Galβ1,4(Fucα1,3)GlcNAcβ1,3Galβ1,4Glcβ1,1Cer [SY2]

- pIC50 (P-Selectin [1]; [3]): 6.44
Molecule: NeuGcα2,3Galβ1,4(Fucα1,3)GlcNacβ1,3Galβ1,4 (Fucα1,3)GlcNAcβ1,3Galβ1,4Glcβ1,1Cer [SdiY2]

- AMOUNT REQUIRED FOR 50% INHIBITION (P-Selectin [1]; [3]): No Inh.
Molecule: NeuGcα2,3Galβ1,4GlcNAcβ1,3Galβ1,4Glcβ1,1Cer [SPG, reference compound]
